Results from paper PMC6798786 (Brain Communications, 2019).
Where a name gives a salt, the structure may show the parent alone. Read-outs that look alike come from different tables or passages of the source.

Assays:
human 5-HT2BR = human 5-HT2BR (Homo sapiens, UniProt P41595); assay: radioligand binding (NIMH PDSP); settings: read-out: Ki 5-HT2BR
Description: (§1) All in vitro binding assay and Ki data studies were performed by the US National Institute of Mental Health Psychoactive Drug Screening Program (NIMH PDSP). For these studies, drugs were screened against recombinant, stably expressed human 5-HT2AR, 5-HT2BR, 5-HT2CR and H1, as described at https://pdspdb.unc.edu/pdspWeb/ ([Besnard et al., 2012]).

human 5-HT2CR = target: T1, human 5-HT2CR (Homo sapiens, UniProt P28335); assay: radioligand binding (NIMH PDSP)
T1 sequence (P28335 33-458): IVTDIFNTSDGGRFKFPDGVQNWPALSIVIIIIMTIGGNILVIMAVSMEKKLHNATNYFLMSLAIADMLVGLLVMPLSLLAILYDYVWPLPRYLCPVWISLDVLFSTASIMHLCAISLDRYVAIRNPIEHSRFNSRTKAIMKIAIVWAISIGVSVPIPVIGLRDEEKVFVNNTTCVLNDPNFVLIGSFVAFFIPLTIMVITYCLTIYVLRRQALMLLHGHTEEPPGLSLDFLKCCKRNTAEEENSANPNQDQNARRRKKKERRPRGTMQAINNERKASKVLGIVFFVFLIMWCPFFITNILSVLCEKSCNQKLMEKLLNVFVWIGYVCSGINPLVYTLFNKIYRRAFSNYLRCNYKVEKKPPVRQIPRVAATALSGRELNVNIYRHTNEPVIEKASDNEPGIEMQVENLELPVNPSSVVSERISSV
Description: as §1

scn1lab mutant zebrafish = assay: locomotion (mean swim velocity) seizure-like behaviour assay in scn1lab mutant zebrafish larvae; type: in vivo, Danio rerio; settings: for change in vivo at 100 µM / change in vivo at 250 µM: Danio rerio
Description: (§2) For locomotion studies, zebrafish larvae (5 days post-fertilization) were placed into a single well of a clear flat-bottomed 96-well microplate containing embryo media. Sex determination is not possible at this stage of development. All drug screening experiments were conducted in an unbiased manner by investigators blinded to the test compounds and all files coded for post hoc analysis. The 96-well plate containing larvae was then placed inside a DanioVision box where they were allowed to acclimate (20 min; room temperature). EthoVision XT software (DanioVision, Noldus Information Technology) was used to obtain locomotion plots (10 min in duration). Seizure scoring was performed, as described ([Baraban et al., 2005]). All locomotion plots were analysed for distance travelled (in millimetres) and mean velocity (in millimetres per second). After 90 min of drug exposure larvae were examined for toxic side-effects. Compounds that decreased or stopped the larva heartbeat, or reduced or eliminated the escape response when touched, were considered toxic.
For behaviour analysis, the threshold for a change in mean swim velocity ≥40% is considered significant (>1.5× SD of 250 control treated scn1lab). Unless otherwise indicated, all data in this manuscript are presented as the mean ± standard error of the mean. […] Statistically significant differences are indicated with asterisks (*P < 0.05; **P < 0.01; ***P < 0.001). […]

[1] = test system: scn1lab mutant zebrafish larvae; assay: toxicity check of larvae after 90 min drug exposure (heartbeat, escape response); type: in vivo, Danio rerio; settings: 100 µM or 250 µM; 90 min exposure
Description: as §2, with “Seizure scoring was performed, as described ([Baraban et al., 2005]).” left out

human H1 = human H1 (Homo sapiens, UniProt P35367); assay: radioligand binding (NIMH PDSP); settings: read-out: Ki H1
Description: as §1

human 5-HT2AR = human 5-HT2AR (Homo sapiens, UniProt P28223); assay: radioligand binding (NIMH PDSP)
Description: as §1

[2] = read-out: % change in velocity, individual larva 1 (heat map)
[3] = read-out: % change in velocity, individual larva 2 (heat map)
[4] = read-out: % change in velocity, individual larva 3 (heat map)
[5] = read-out: % change in velocity, individual larva 4 (heat map)
[6] = read-out: % change in velocity, individual larva 5 (heat map)
[7] = read-out: % change in velocity, individual larva 6 (heat map)
[8] = read-out: mean velocity change from six fish, Trial 1
[9] = read-out: mean velocity change from six fish, Trial 2
[10] = recombinant, stably expressed human receptor, clemizole analogues

Sequence of human 5-HT2AR (P28223 whole entry): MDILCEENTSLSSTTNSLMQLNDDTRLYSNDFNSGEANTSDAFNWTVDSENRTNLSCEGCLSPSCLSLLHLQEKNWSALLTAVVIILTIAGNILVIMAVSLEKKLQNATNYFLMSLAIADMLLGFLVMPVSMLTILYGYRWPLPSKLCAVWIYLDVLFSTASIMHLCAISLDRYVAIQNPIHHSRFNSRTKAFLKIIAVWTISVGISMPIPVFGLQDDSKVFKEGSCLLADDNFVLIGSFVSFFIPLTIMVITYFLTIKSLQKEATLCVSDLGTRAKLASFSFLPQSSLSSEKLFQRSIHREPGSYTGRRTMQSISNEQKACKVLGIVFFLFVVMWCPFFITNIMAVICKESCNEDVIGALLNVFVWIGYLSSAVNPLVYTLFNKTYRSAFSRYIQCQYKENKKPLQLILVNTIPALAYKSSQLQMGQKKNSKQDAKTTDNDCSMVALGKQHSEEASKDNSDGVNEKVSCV
Sequence of human H1 (P35367 whole entry): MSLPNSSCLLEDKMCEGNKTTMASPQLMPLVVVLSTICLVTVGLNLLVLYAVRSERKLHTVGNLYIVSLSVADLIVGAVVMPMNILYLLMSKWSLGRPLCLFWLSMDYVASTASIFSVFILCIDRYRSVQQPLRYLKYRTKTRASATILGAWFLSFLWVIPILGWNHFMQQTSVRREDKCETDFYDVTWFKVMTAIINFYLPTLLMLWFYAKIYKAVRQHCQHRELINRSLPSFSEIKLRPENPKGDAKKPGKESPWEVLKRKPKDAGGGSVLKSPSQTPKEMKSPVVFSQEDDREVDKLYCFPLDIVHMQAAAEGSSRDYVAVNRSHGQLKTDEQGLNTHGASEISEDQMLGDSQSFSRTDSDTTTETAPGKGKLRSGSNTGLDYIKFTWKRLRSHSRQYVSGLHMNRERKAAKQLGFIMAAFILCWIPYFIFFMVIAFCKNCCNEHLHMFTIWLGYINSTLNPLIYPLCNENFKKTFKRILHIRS
Sequence of human 5-HT2BR (P41595 whole entry): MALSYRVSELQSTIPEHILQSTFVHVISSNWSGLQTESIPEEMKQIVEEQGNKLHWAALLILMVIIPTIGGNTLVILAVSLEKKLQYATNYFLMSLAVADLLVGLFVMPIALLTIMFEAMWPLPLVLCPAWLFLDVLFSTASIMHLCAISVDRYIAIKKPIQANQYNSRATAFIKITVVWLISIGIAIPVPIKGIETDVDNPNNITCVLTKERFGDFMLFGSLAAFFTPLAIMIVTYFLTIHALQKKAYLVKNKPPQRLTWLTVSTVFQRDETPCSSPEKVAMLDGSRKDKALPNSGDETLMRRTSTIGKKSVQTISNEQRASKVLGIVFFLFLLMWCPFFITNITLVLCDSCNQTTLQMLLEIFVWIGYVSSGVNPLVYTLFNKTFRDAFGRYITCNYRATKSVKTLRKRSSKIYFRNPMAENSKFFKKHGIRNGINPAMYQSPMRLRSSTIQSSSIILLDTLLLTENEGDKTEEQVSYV

Clc1ccc(Cn2c(CC3CCCC3)nc3ccccc32)cc1 [Compound 1]
Ki (human 5-HT2BR): 501 nM | Ki (human 5-HT2CR): 2730 nM | change in vivo at 100 µM (scn1lab mutant zebrafish; [2]): -100% | change in vivo at 250 µM (scn1lab mutant zebrafish; [2]): -100% | change in vivo at 100 µM (scn1lab mutant zebrafish; [3]): -100% | change in vivo at 250 µM (scn1lab mutant zebrafish; [3]): -60% | change in vivo at 100 µM (scn1lab mutant zebrafish; [4]): -100% | change in vivo at 250 µM (scn1lab mutant zebrafish; [4]): -100% | change in vivo at 100 µM (scn1lab mutant zebrafish; [5]): -100% | change in vivo at 250 µM (scn1lab mutant zebrafish; [5]): -100% | change in vivo at 100 µM (scn1lab mutant zebrafish; [6]): -100% | change in vivo at 250 µM (scn1lab mutant zebrafish; [6]): -100% | change in vivo at 100 µM (scn1lab mutant zebrafish; [7]): -100% | change in vivo at 250 µM (scn1lab mutant zebrafish; [7]): -100% | change in vivo at 100 µM (scn1lab mutant zebrafish; [8]): -100% | change in vivo at 250 µM (scn1lab mutant zebrafish; [8]): -96.2% | change in vivo at 100 µM (scn1lab mutant zebrafish; [9]): -100% | toxicity in initial analogue screening [1]: toxic

Clc1ccc(Cn2c(CN3CCOCC3)nc3ccccc32)cc1 [Compound 23]
Ki (human H1; [10]): 34 nM | Ki (human 5-HT2AR; [10]): > 10000 nM | Ki (human 5-HT2BR; [10]): 515 nM | Ki (human 5-HT2CR; [10]): > 10000 nM | toxicity in initial analogue screening [1]: toxic

O=C(c1nc2ccccc2n1Cc1ccc(Cl)cc1)N1CCCC1 [Compound 2]
change in vivo at 100 µM (scn1lab mutant zebrafish; [2]): -68.2% | change in vivo at 250 µM (scn1lab mutant zebrafish; [2]): -100% | change in vivo at 100 µM (scn1lab mutant zebrafish; [3]): -100% | change in vivo at 250 µM (scn1lab mutant zebrafish; [3]): -100% | change in vivo at 100 µM (scn1lab mutant zebrafish; [4]): -100% | change in vivo at 250 µM (scn1lab mutant zebrafish; [4]): -100% | change in vivo at 100 µM (scn1lab mutant zebrafish; [5]): -100% | change in vivo at 250 µM (scn1lab mutant zebrafish; [5]): -100% | change in vivo at 100 µM (scn1lab mutant zebrafish; [6]): -100% | change in vivo at 250 µM (scn1lab mutant zebrafish; [6]): -100% | change in vivo at 100 µM (scn1lab mutant zebrafish; [7]): -100% | change in vivo at 250 µM (scn1lab mutant zebrafish; [7]): -100% | change in vivo at 100 µM (scn1lab mutant zebrafish; [8]): -97.2% | change in vivo at 250 µM (scn1lab mutant zebrafish; [8]): -100% | change in vivo at 100 µM (scn1lab mutant zebrafish; [9]): -97.2% | toxicity in initial analogue screening [1]: toxic

CC(C)C[C@H]1C(=O)N2CCC[C@H]2[C@]2(O)O[C@](NC(=O)[C@@H]3C=C4c5cccc6[nH]c(Br)c(c56)C[C@H]4N(C)C3)(C(C)C)C(=O)N12 [bromocriptine, Bromocriptine mesylate, reference compound]
effect on seizure-like swim behaviour at 10 µM (scn1lab mutant zebrafish; 10 µM): significantly reduced seizure-like swim behaviour

CCN(CC)Cc1nc2ccccc2n1Cc1ccc(Cl)cc1 [Compound 24]
Ki (human H1): 3.7 nM | Ki (human 5-HT2AR): 1260 nM | Ki (human 5-HT2BR): 115 nM | Ki (human 5-HT2CR): 1410 nM | change in vivo at 100 µM (scn1lab mutant zebrafish; [2]): 67.6% | change in vivo at 250 µM (scn1lab mutant zebrafish; [2]): -100% | change in vivo at 100 µM (scn1lab mutant zebrafish; [3]): 330% | change in vivo at 250 µM (scn1lab mutant zebrafish; [3]): -100% | change in vivo at 100 µM (scn1lab mutant zebrafish; [4]): -70.1% | change in vivo at 250 µM (scn1lab mutant zebrafish; [4]): -90% | change in vivo at 100 µM (scn1lab mutant zebrafish; [5]): -28% | change in vivo at 250 µM (scn1lab mutant zebrafish; [5]): -100% | change in vivo at 100 µM (scn1lab mutant zebrafish; [6]): -30.1% | change in vivo at 250 µM (scn1lab mutant zebrafish; [6]): -100% | change in vivo at 100 µM (scn1lab mutant zebrafish; [7]): -3.9% | change in vivo at 250 µM (scn1lab mutant zebrafish; [7]): -100% | change in vivo at 100 µM (scn1lab mutant zebrafish; [8]): 3.5% | change in vivo at 250 µM (scn1lab mutant zebrafish; [8]): -98.7% | change in vivo at 100 µM (scn1lab mutant zebrafish; [9]): 3.5% | toxicity in initial analogue screening [1]: toxic

Fc1ccc(Cn2c(CN3CCCC3)nc3ccccc32)cc1 [Compound 7]
Ki (human H1; [10]): 1 nM | Ki (human 5-HT2AR; [10]): 15 nM | Ki (human 5-HT2BR; [10]): 46 nM | Ki (human 5-HT2CR; [10]): 345 nM

Cl.Clc1cccc(N2CCNCC2)c1 [m-CPP, reference compound]
effect on seizure-like swim behaviour, commercially available compounds (scn1lab mutant zebrafish; three concentrations, 30 and 90 min exposure): biphasic response

CCCn1c(CN2CCCC2)nc2ccccc21.O=CO [Compound 5]
Ki (human H1; [10]): 362 nM | Ki (human 5-HT2AR; [10]): > 10000 nM | Ki (human 5-HT2BR; [10]): 219 nM | Ki (human 5-HT2CR; [10]): > 10000 nM | effect on seizure-like swim behaviour, initial library screen (scn1lab mutant zebrafish; 100 µM or 250 µM, UCSF-synthesized compound): no significant effect on swim behaviour | effect on seizure-like swim behaviour, retest of independently synthesized compound (scn1lab mutant zebrafish; 10, 50, 100 and 250 µM, 30 and 90 min exposure): no significant effect on the swim behaviour

CN1CCN(Cc2nc3ccccc3n2Cc2ccc(Cl)cc2)CC1 [Compound 26]
Ki (human H1; [10]): 1.2 nM | Ki (human 5-HT2AR; [10]): 316 nM | Ki (human 5-HT2BR; [10]): 20 nM | Ki (human 5-HT2CR; [10]): 313 nM
